Assay results from patent US6461997B1, “Triazole sulfones having herbicidal activity” (Monsanto Technology LLC, priority 1999, dated 2002).

Tests used:
[1] = system: CHEAL (common lambsquarters); test: Pre-plant incorporated (PPI) herbicidal activity, warm season; format: in vivo, Chenopodium album; details: for Percent inhibition CHEAL: PPI application; for PPI activity (GR80) CHEAL: pre-plant incorporated, GR80 = lowest tested rate with 80% or greater inhibition, approx. 14 days after treating, 30/21° C.
Experimental: (§1) In another set of tests, the pre-plant incorporated (PPI) activity of compounds of this invention was evaluated on the same species as for the pre-emergence tests described above. In the PPI tests the following procedure, designed to simulate PPI application, was used.
(§2) A pre-prepared topsoil mixture (described above) was placed in a pot and compacted to a depth of 1.0 to 1.25 cm from the top of the pot. Seeds of each of several monocotyledonous and dicotyledonous annual plant species were placed on top of the soil. A sufficient quantity of soil to cover the seeds and level fill the pot was weighed into an open container. A known amount of the test compound was dissolved or suspended in an organic solvent and applied by spraying to this cover soil. The cover soil was thoroughly mixed to distribute the test compound throughout the cover soil, and was then applied as a cover layer over the seeds. Untreated soil was used as a cover layer for control pots. After treatment the plants were placed in a greenhouse where they received 0.64 cm of overhead irrigation. All subsequent watering consisted of a light overhead mist and/or subirrigation as needed for germination and growth. Tables 9 and 10 below relate to warm season plant species which were placed after pre-emergence treatment in a greenhouse with a 30/21° C. day/night temperature regime. Tables 11 and 12 below relates to cool season plant species placed after pre-emergence treatment in a greenhouse or growth chamber with an 18/13° C. day/night temperature regime. Only the compounds of Examples 1, 6, 8, 11, 13 and 15-20 were included in PPI tests.
(§3) Approximately 14 days after planting and treating, the plants were observed and herbicidal efficacy recorded as percent inhibition by comparison with untreated plants.

[2] = system: PANMI (wild proso millet); test: as above; format: in vivo, Panicum miliaceum; details: for Percent inhibition PANMI: PPI application; for PPI activity GR80, PANMI: pre-plant incorporated, lowest tested rate with 80% or greater inhibition, about 14 days
Experimental: as §1, §2, §3

[3] = system: SORVU (shattercane); test: Pre-emergence herbicidal activity, warm season; format: in vivo, Sorghum vulgare; details: GR80 = lowest tested rate (300, 100, 30, 10 g/ha) with 80% or greater inhibition; approx. 14 days after treating; 30/21° C.
How it was run: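 Seeds sown in sterilised fertilised topsoil received surface-applied compound in 50:50 acetone/water, typically at 300, 100, 30 and 10 g/ha, then greenhouse-grown at 30/21° C (warm-season species) or 18/13° C (cool-season species). Percent inhibition versus untreated plants was scored at about 14 days, giving GR80; an asterisk marks activity short of 80% at the top rate.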

[4] = system: SETFA (giant foxtail); test: Pre-plant incorporated (PPI) herbicidal activity, warm season; format: in vivo, Setaria faberi; details: for Percent inhibition SETFA: PPI application; for PPI activity GR80, SETFA: pre-plant incorporated, lowest tested rate with 80% or greater inhibition, about 14 days
Experimental: as §1, §2, §3

[5] = system: wheat (TRZAW); test: Selectivity test, PPI, cool season crop; format: in vivo, Triticum aestivum; details: PPI application
Experimental: as §2, §3
Additional pre-emergence and PPI tests were conducted by the procedures described above, on warm and cool season weed species in the presence of crop species, to assess herbicidal selectivity. Crop species included in warm season tests were corn (Zea mays, ZEAMX), rice (Oryza sativa, ORYSA) and soybean (Glycine max, GLYMX). Crop species included in cool season tests were wheat (Triticum aestivum, TRZAW), barley (Hordeunm vulgare, HORVX) and oilseed rape (Brassica napus, BRSNS).
Tables 15 and 16 relate to pre-emergence and PPI tests respectively on warm season species. Table 17 relates to pre-emergence tests on cool season species.

[6] = system: AGRRE (quackgrass (seedling)); test: Pre-plant incorporated (PPI) herbicidal activity, cool season; format: in vivo, Elymus repens; details: for PPI activity GR80, AGRRE: pre-plant incorporated, lowest tested rate with 80% or greater inhibition, about 14 days; for Percent inhibition AGRRE: weed, PPI application
Experimental: as §1, §2, §3

[7] = system: SINAR (wild mustard); test: as above; format: in vivo, Sinapis arvensis; details: for PPI activity GR80, SINAR: pre-plant incorporated, lowest tested rate with 80% or greater inhibition, about 14 days; for Percent inhibition SINAR: weed, PPI application
Experimental: as §1, §2, §3

[8] = system: BRAPP (broadleaf signalgrass); test: Pre-plant incorporated (PPI) herbicidal activity, warm season; format: in vivo, Brachiaria platyphylla; details: for Percent inhibition BRAPP: PPI application; for PPI activity GR80, BRAPP: pre-plant incorporated, lowest tested rate with 80% or greater inhibition, about 14 days
Experimental: as §1, §2, §3

[9] = system: DIGSA (large crabgrass); test: Pre-emergence herbicidal activity, warm season; format: in vivo, Digitaria sanguinalis; details: GR80 = lowest tested rate (300, 100, 30, 10 g/ha) with 80% or greater inhibition; approx. 14 days after treating; 30/21° C.
How it was run: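 Read-out: GR80, derived from percent growth inhibition relative to untreated plants at roughly 14 days after planting and treatment. Compounds went onto the surface of freshly seeded soil at 10–300 g/ha. Day/night regimes were 30/21 °C for millet and crabgrass, 18/13 °C for blackgrass and buckwheat.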

CCN(CC)C(=O)n1cnc(S(=O)(=O)C(F)(F)SCCOC)n1 [Example 13]
Percent inhibition CHEAL ([1]; 10 g/ha): 30%
Percent inhibition CHEAL ([1]; 30 g/ha): 20%
Percent inhibition CHEAL ([1]; 100 g/ha): 100%
Percent inhibition CHEAL ([1]; 300 g/ha): 100%
Percent inhibition CHEAL ([1]; 900 g/ha): 100%
PPI activity (GR80) CHEAL [1]: 30 g/ha
Percent inhibition PANMI ([2]; 10 g/ha): 100%
Percent inhibition PANMI ([2]; 30 g/ha): 90%
Percent inhibition PANMI ([2]; 100 g/ha): 70%
Percent inhibition PANMI ([2]; 300 g/ha): 100%
Percent inhibition PANMI ([2]; 900 g/ha): 100%
PPI activity GR80, PANMI [2]: 100 g/ha
Pre-emergence activity (GR80) SORVU [3]: * (activity observed, at least at highest rate, but <80% inhibition)
Percent inhibition SETFA ([4]; 10 g/ha): 0%
Percent inhibition SETFA ([4]; 30 g/ha): 99%
Percent inhibition SETFA ([4]; 100 g/ha): 90%
Percent inhibition SETFA ([4]; 300 g/ha): 100%
Percent inhibition SETFA ([4]; 900 g/ha): 100%
PPI activity GR80, SETFA [4]: 30 g/ha
Percent inhibition TRZAW ([5]; 10 g/ha): 0%
Percent inhibition TRZAW ([5]; 30 g/ha): 0%
Percent inhibition TRZAW ([5]; 100 g/ha): 20%
Percent inhibition TRZAW ([5]; 300 g/ha): 20%
Percent inhibition TRZAW ([5]; 900 g/ha): 30%
PPI activity GR80, AGRRE [6]: * (activity observed, at least at highest rate, but <80% inhibition)
Percent inhibition AGRRE ([6]; 10 g/ha): 0%
Percent inhibition AGRRE ([6]; 30 g/ha): 0%
Percent inhibition AGRRE ([6]; 100 g/ha): 20%
Percent inhibition AGRRE ([6]; 300 g/ha): 40%
Percent inhibition AGRRE ([6]; 900 g/ha): 60%
PPI activity GR80, SINAR [7]: [empty]
Percent inhibition SINAR ([7]; 10 g/ha): 70%
Percent inhibition SINAR ([7]; 30 g/ha): 100%
Percent inhibition SINAR ([7]; 100 g/ha): 100%
Percent inhibition SINAR ([7]; 900 g/ha): 100%
Percent inhibition BRAPP ([8]; 10 g/ha): 40%
Percent inhibition BRAPP ([8]; 30 g/ha): 80%
Percent inhibition BRAPP ([8]; 100 g/ha): 95%
Percent inhibition BRAPP ([8]; 300 g/ha): 99%
Percent inhibition BRAPP ([8]; 900 g/ha): 100%
PPI activity GR80, BRAPP [8]: 100 g/ha

C=C(CC(F)(F)S(=O)(=O)c1ncn(C(=O)N(CC)CC)n1)C[Si](C)(C)C [Example 20]
PPI activity (GR80) CHEAL [1]: 30 g/ha
Percent inhibition PANMI ([2]; 10 g/ha): 0%
Percent inhibition PANMI ([2]; 30 g/ha): 20%
Percent inhibition PANMI ([2]; 100 g/ha): 100%
Percent inhibition PANMI ([2]; 300 g/ha): 65%
Percent inhibition PANMI ([2]; 900 g/ha): 100%
PPI activity GR80, PANMI [2]: 100 g/ha
Pre-emergence activity (GR80) SORVU [3]: 300 g/ha
Percent inhibition SETFA ([4]; 10 g/ha): 0%
Percent inhibition SETFA ([4]; 30 g/ha): 70%
Percent inhibition SETFA ([4]; 100 g/ha): 99%
Percent inhibition SETFA ([4]; 300 g/ha): 90%
Percent inhibition SETFA ([4]; 900 g/ha): 100%
PPI activity GR80, SETFA [4]: 100 g/ha
Pre-emergence activity (GR80) DIGSA [9]: 100 g/ha
Percent inhibition TRZAW ([5]; 10 g/ha): 0%
Percent inhibition TRZAW ([5]; 30 g/ha): 0%
Percent inhibition TRZAW ([5]; 100 g/ha): 0%
Percent inhibition TRZAW ([5]; 300 g/ha): 40%
Percent inhibition TRZAW ([5]; 900 g/ha): 60%
PPI activity GR80, AGRRE [6]: 300 g/ha
Percent inhibition AGRRE ([6]; 10 g/ha): 0%
Percent inhibition AGRRE ([6]; 30 g/ha): 10%
Percent inhibition AGRRE ([6]; 100 g/ha): 65%
Percent inhibition AGRRE ([6]; 300 g/ha): 40%
Percent inhibition AGRRE ([6]; 900 g/ha): 80%
PPI activity GR80, SINAR [7]: * (activity observed, at least at highest rate, but <80% inhibition)
Percent inhibition SINAR ([7]; 10 g/ha): 30%
Percent inhibition SINAR ([7]; 30 g/ha): 80%
Percent inhibition SINAR ([7]; 100 g/ha): 80%
Percent inhibition SINAR ([7]; 300 g/ha): 60%
Percent inhibition SINAR ([7]; 900 g/ha): 70%
Percent inhibition BRAPP ([8]; 10 g/ha): 0%
Percent inhibition BRAPP ([8]; 30 g/ha): 0%
Percent inhibition BRAPP ([8]; 100 g/ha): 0%
Percent inhibition BRAPP ([8]; 300 g/ha): 30%
Percent inhibition BRAPP ([8]; 900 g/ha): 60%
PPI activity GR80, BRAPP [8]: 100 g/ha
